Data set [1] is described as follows: Cytotoxic effects on SH-SY5Y cells after 24 h (alamar blue viability assay). Type of data set: cell-based. Conditions: human, SH-SY5Y neuroblastoma cells, 24 h, 95% confidence interval, at least three independent experiments, read-out: LC50. The protocol:
(§1) The cytotoxic effects of the tested ligands on neuroblastoma SH-SY5Y cells were determined using the alamar blue viability assay. SH-SY5Y cells were grown in Minimum Essential Medium Eagle (MEME) supplemented with non-essential amino acids, 10% FBS, 100 µg/mL penicillin, 100 units/mL streptomycin, and 2 mM L-glutamine at 37 °C in a humidified atmosphere of 5% CO2. SH-SY5Y cells were seeded in 96-well plates at a density of 8.0 × 10^3 cells per well and grown at 37 °C in a humidified atmosphere of 5% CO2. 24 h after seeding, the test ligands were added at concentrations between 30 µM and 1 nM in a final assay volume of 100 µL per well and incubated for 24 h. Cells treated with 1-methyl-4-phenylpyridinium iodide (MPP+) served as a positive control for cytotoxic effects. The concentration of DMSO was limited to 1% for all the assay points. The medium supplemented with the test compounds was discarded, and 100 µL of resazurin solution in RPMI-1640 medium (44 µM) was added. After two hours of incubation at 37 °C in a humidified atmosphere of 5% CO2, fluorescence intensity ([…]) was determined. Data were obtained in duplicate from at least three independent experiments. LC50 values were evaluated using GraphPad Prism 7.02. using a nonlinear regression. Mean values and 95% confidence intervals were calculated using −log(Ki) and converted to nanomolar concentrations.
(Resazurin is reduced to fluorescent resorufin, in cell work by metabolically active cells.)

The next data set concerns SH-SY5Y cells. Described as above. Type of data set: cell-based. Conditions: for effects on cell viability: concentrations below 1 µM. The protocol:
as §1

For data set [2], the target named is T1, hH3R (Homo sapiens, UniProt Q9Y5N1).
T1 construct: expressed in transfected cells; host or cells: HEK-293 cells stably expressing hH3R
T1 sequence (Q9Y5N1 whole entry): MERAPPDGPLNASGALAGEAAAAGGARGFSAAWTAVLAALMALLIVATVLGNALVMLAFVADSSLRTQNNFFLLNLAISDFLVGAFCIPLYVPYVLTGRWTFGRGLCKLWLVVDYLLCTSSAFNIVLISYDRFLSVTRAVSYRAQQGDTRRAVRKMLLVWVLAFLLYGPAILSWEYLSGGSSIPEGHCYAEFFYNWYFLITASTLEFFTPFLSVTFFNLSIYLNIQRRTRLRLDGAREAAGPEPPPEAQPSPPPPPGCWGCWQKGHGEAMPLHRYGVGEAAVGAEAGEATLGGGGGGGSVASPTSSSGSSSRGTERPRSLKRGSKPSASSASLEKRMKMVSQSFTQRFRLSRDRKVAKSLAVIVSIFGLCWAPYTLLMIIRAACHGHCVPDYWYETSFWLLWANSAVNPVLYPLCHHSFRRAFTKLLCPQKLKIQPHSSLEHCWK
The experiment in a line: hH3R radioligand displacement assay ([3H]Nα-methylhistamine, HEK-293-hH3R membranes). In kind it is binding. How it is done: Radioligand displacement assays were performed on the membrane fractions of HEK-293 cells stably expressing hH3R455, which occurs mainly in the brain, as described previously with slight modifications. HEK-293-hH3R cells were grown in Dulbecco’s Modified Eagle Medium (DMEM) supplemented with 10% FBS, 100 µg/mL penicillin, 100 units/mL streptomycin, and 10 mM HEPES solution at 37 °C in a humidified atmosphere of 5% CO2. To prepare membrane fractions, cells were washed in a phosphate-buffered saline (PBS) solution and harvested. The cells were centrifuged at 3000× g for 10 min at 4 °C and homogenized with Ultraturrax® in ice-cold binding buffer (75 mM Tris-HCl, 10 mM MgCl2, 100 mM NaCl, pH 7.4). The homogenate was centrifuged twice (20,000× g, 20 min, 4 °C) and reconstituted in an ice-cold binding buffer. Test ligands, radiolabeled ligands, and membrane fractions (20 µg/well) were added to 96-well plates to a final assay volume of 200 µL. After 90 min of incubation with shaking at 25 °C, a cell harvester was used to separate bound from free ligands by filtration through GF/B filters pretreated with 0.3% (m/v) polyethylenimine. Radioactivity was determined by liquid scintillation counting. […] The test ligands were evaluated at concentrations between 100 µM and 0.03 nM. […] Specific binding was calculated by subtracting non-specific binding from the raw data. Data were obtained in duplicate from at least three independent experiments and analyzed using GraphPad Prism 7.02. using a nonlinear regression. The Cheng–Prusoff equation was used to calculate Ki values from the IC50 values. Mean values and 95% confidence intervals were calculated using −log(Ki) and converted to nanomolar concentrations.
S4. hH3R Radioligand Displacement Assay
Radioligand displacement assays were performed on the membrane fractions of HEK-293 cells stably expressing hH3R. Cultivation of hH3R-HEK-293 cells and membrane preparation was performed as described previously. [3H]Nα-Methylhistamine was used as the radiolabeled probe at a final […]
-log(Ki) was used to calculate mean values and 95% confidence intervals.
Figure S13. hH3R competition binding curve of compounds 6a
Figure S14. hH3R competition binding curve of compounds 6b […]
(Displacement assays read how much labelled ligand stays bound in the presence of the test substance.)

Data set [3] is described as follows: Oxygen radical absorbance capacity (ORAC-FL) assay. As to conditions: mean Trolox equivalents with SEM, at least three independent experiments, 37 °C. How it is done:
Antioxidant properties were analyzed using an oxygen radical absorbance capacity (ORAC) assay at 37 °C [27]. Solutions of the fluorescent probe fluorescein at 100 nM and test ligands at concentrations between 20 µM and 6.25 µM were incubated for 15 min in potassium phosphate buffer (75 mM, pH 7.4) protected from light in black 96-well plates at 37 °C. Then, 2,2′-azobis (2-amidinopropane) dihydrochloride (AAPH) was added as a peroxyl radical generator. The fluorescence intensity ([…]) was measured every minute for 90 min. 6-Hydroxy-2,5,7,8-tetramethylchroman-2-carboxylic acid (Trolox) was used as a standard at concentrations between 20 µM and 6.25 µM. Data were obtained in duplicate from at least three independent experiments and evaluated using GraphPad Prism 7.02. Fluorescence intensity was normalized to that of the blank (without AAPH). The area under the fluorescence decay curve for each antioxidant (AUCantioxidant) and for the negative control without antioxidants (AUCnegative control) were calculated for each concentration by summing the fluorescence intensities at each time point. AUCnegative control was subtracted from the AUCantioxidant to calculate the net AUC. Linear regression of the net AUC against the corresponding antioxidant concentration was performed. The ratios of the antioxidant and Trolox slopes from the same experiment were calculated. Thus, ORAC values were expressed as Trolox equivalents [TE], and caffeic acid was used as a reference.

Data set [4] has as its target T1, hH3R. As to conditions: cited from earlier work.
Where [5] appears, read: Table 2, from Ki, read-out: pKi (converted).
Setting [6] is: [3H]Nα-methylhistamine displacement on HEK-293-hH3R membranes, 95% confidence interval, at least three independent experiments, read-out: hH3R Ki.

“And” between values parts separate entries of the source, which are not always exact repeats. Equal entries are not always repeated. Where two headings read alike, the source gives them in different places.

`[Br-].c1ccc([P+](CCCCCOc2ccc(OCCCN3CCCCC3)cc2)(c2ccccc2)c2ccccc2)cc1` [Compound 6b, Triphenyl-(5-(4-(3-(piperidin-1-yl)propoxy)phenoxy)pentyl)phosphonium bromide]: the CC50 at 24 h in data set [1] amounted to 21800 nM. Besides, the “effects on cell viability” value with SH-SY5Y cells was “no significant effects on cell viability”. The Ki at hH3R [2] (setting [5]) and at hH3R [2] (setting [6]) was 17.6 nM throughout. Moreover, the ORAC in data set [3] amounted to 0.70 ± 0.01 TE.
Consider `c1ccc([P+](CCCCCCOc2ccc(OCCCN3CCCCC3)cc2)(c2ccccc2)c2ccccc2)cc1` [Compound 6c, Triphenyltriphenyl-(6-(4-(3-(piperidin-1-yl)propoxy)phenoxy)hexyl)phosphonium bromide], for which the CC50 at 24 h in data set [1] came to 11200 nM. Moreover, the Ki at hH3R [2] (setting [5]) and at hH3R [2] (setting [6]) was 31.5 nM in each case. Moreover, in data set [3], the ORAC is 0.54 TE and 0.54 ± 0.03 TE.
For `CN1CCc2ccc(OCCCN3CCCCC3)cc2C1=O` [Compound I], the Ki at hH3R [4] (Figure 1, read-out: hH3R Ki) was 23 nM.
Take `CCNC(=O)[C@H]1C[C@@](F)(c2ccc(CN3CCCC3)c(F)c2)C1` [PF-03654746]: the Ki at hH3R [4] (Table 2, co-crystallized ligand of 7F61, read-out: Ki) was 3.2 nM.
Turning to `c1ccc([P+](CCCCCCCCOc2ccc(OCCCN3CCCCC3)cc2)(c2ccccc2)c2ccccc2)cc1` [Compound 6d, Triphenyltriphenyl-(8-(4-(3-(piperidin-1-yl)propoxy)phenoxy)octyl)phosphonium bromide], the CC50 at 24 h in data set [1] was 2690 nM. The Ki on hH3R [2] (setting [5]) and on hH3R [2] (setting [6]) was 20.4 nM each time. Also, the ORAC in data set [3] came out at 0.89 ± 0.16 TE.
On to `c1ccc([P+](CCCCCCCCCCOc2ccc(OCCCN3CCCCC3)cc2)(c2ccccc2)c2ccccc2)cc1` [Compound 6f, Triphenyltriphenyl-(10-(4-(3-(piperidin-1-yl)propoxy)phenoxy)decyl)phosphonium bromide], for which the CC50 at 24 h in data set [1] amounted to 2610 nM. Also, the Ki on hH3R [2] (Table 2, biological activity repeated next to the IFD results, read-out: Ki) stood at 67.4 nM; at hH3R [2] (setting [6]), 67.4 nM. Besides, in data set [3], the ORAC stood at 0.59 ± 0.06 TE.
As for `c1ccc([P+](CCCCOc2ccc(OCCCN3CCCCC3)cc2)(c2ccccc2)c2ccccc2)cc1` [Compound 6a], in data set [1], the CC50 at 24 h came out at 40000 nM. For the same compound, in the data set on SH-SY5Y cells, the “effects on cell viability” value was “no significant effects on cell viability”. In addition, the Ki on hH3R [2] (setting [5]) and at hH3R [2] (setting [6]) was 32 nM each time. For the same compound, in data set [3], the ORAC came to 1.04 ± 0.03 TE.
On to `c1ccc([P+](CCCCCCCCCOc2ccc(OCCCN3CCCCC3)cc2)(c2ccccc2)c2ccccc2)cc1` [Compound 6e, Triphenyltriphenyl-(9-(4-(3-(piperidin-1-yl)propoxy)phenoxy)nonyl)phosphonium bromide], for which the CC50 at 24 h in data set [1] is < 1000 nM. The CC50 with SH-SY5Y cells (24 h, 95% confidence interval, at least three independent experiments, read-out: LC50 (the source's name)) amounted to 910 nM. Further, the Ki at hH3R [2] (setting [5]) and on hH3R [2] (setting [6]) was 14.1 nM in each case. Moreover, the ORAC in data set [3] was 1.07 ± 0.06 TE.
In general, Kd refers to the free concentration of one partner at which half of the binding sites on the other are occupied at equilibrium, for simple one-to-one binding. In the case of `CNCCc1cnc[nH]1` [[^3H]N^α-methylhistamine, reference compound], the Kd at hH3R [2] (probe used at a final concentration of 2 nM, read-out: Kd of the radiolabeled probe) turned out to be 3.08 nM.
`O=C(O)/C=C/c1ccc(O)c(O)c1` [Caffeic acid, reference compound]: in data set [3], the ORAC is reported as 3.08 ± 0.13 TE.
